Measured values reported in ChEMBL document CHEMBL1146578, “10-Methoxydihydrofuscin, fuscinarin, and fuscin, novel antagonists of the human CCR5 receptor from Oidiodendron griseum” (J Nat Prod, 2003).
pIC50: −log10 of the molar value.

target: C-C chemokine receptor type 5 (Homo sapiens, UniProt P51681); assay: Displacement of [125I]human-MIP1-alpha from human CCR5 receptor expressed in CHO cells by SPA; assay type: cell-based
Sequence (P51681 whole entry): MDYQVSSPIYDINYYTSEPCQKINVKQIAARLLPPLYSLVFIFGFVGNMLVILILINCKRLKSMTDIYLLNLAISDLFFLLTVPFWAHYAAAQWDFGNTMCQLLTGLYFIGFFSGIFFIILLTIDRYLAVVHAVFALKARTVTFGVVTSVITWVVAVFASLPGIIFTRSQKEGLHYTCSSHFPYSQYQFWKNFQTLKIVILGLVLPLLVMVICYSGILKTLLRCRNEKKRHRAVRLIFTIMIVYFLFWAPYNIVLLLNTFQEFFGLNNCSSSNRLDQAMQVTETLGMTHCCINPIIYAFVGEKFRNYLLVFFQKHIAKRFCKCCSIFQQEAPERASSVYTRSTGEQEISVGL

pIC50	SMILES
3.81	COC1C(=O)OC(C)c2c(O)c(O)c3c(c21)CCC(C)(C)O3 (stereo not drawn)
4.10	CC1OC(=O)c2c3c(c(O)c(O)c21)OC(C)(C)CC3 (stereo not drawn) [FUSCINARIN]
4.68	CC1OC(=O)C=C2C3=C(OC(C)(C)CC3)C(=O)C(O)=C21 (stereo not drawn) [FUSCIN]
